{"source": "patent US20070099871A1", "about": "“Bioreductively-activated prodrugs” (ANGIOGENE PHARMACEUTICALS LIMITED, priority 2003, published 2007)", "key": {"[1]": {"assay": "Metabolism in liver homogenates", "format": "in vitro ADME", "settings": "in air, mouse liver homogenate, NADPH, pH 7.4, 37° C.", "procedure": "Metabolic stability of the compounds and unfavorable release of the drug by oxic liver can be assessed by using, for example, this assay. Freshly-excised mouse liver (approximately 1 g) was homogenised in 15 ml of ice-cold 50 mmol d-3 potassium phosphate buffer at pH 7.4. The homogenates were centrifuged at 1000 RPM for 10 min and the supernatants stored on ice. The metabolism of […] prodrug in air was performed with 0.5 ml liver homogenate (∫4 mg of protein by Bradford assay) with 100 μmol dm^−3 NADPH in 50 mmol dm^−3 potassium phosphate buffer at pH 7.4 incubated at 37° C. Samples (60 μl) were taken at regular intervals and added to an equivalent volume of acetonitrile, then mixed and centrifuged at 14, 300 RPM for 2 min prior to product analysis by HPLC. In this test the compound of Example 1 produced combretastatin A4 at a rate of only 3 pmol·min^−1·mg protein^−1. In contrast the corresponding compound 1-(4-methoxy-3-(5-nitrothiene-2-yl)methoxy)phenyl-2-(3,4,5-trimethoxy)phenyl-Z-ethene, lacking the key features of the invention produced combretastatin at a greater rate of 20 pmol·min^−1·mg proteins^−1."}, "[2]": {"biological_target": "T1, Supersomal p450 reductase (Homo sapiens, UniProt P16435)", "T1 construct": "purchased Gentest P244", "T1 sequence (P16435 1-677)": "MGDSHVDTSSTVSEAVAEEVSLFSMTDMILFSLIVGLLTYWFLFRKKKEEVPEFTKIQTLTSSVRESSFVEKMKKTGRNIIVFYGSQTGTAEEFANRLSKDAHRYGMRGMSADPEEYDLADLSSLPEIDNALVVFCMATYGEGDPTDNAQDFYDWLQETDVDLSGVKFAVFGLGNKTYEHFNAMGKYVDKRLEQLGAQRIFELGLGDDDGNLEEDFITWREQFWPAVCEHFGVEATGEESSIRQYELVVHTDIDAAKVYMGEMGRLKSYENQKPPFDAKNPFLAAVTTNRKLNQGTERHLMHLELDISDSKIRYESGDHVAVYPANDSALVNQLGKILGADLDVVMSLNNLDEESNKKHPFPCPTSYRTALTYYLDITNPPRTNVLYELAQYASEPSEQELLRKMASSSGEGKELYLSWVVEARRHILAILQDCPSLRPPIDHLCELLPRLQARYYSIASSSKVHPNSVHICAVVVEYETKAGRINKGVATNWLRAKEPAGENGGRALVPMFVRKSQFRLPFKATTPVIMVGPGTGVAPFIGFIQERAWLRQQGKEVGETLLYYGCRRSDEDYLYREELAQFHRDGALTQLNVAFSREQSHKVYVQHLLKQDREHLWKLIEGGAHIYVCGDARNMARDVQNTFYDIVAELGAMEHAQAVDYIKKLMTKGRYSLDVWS", "assay": "Drug release by cytochrome p450 reductase", "format": "biochemical", "settings": "NADPH, pH 7.4, 37° C.", "procedure": "Cytochrome p450 reductase is widely expressed in human tumours as well as in a range of normal tissues and is one of a number of enzymes that can catalyse bioreduction. […] Compounds were dissolved in DMSO to a concentration of 625 μM and 20 μL added to a mixture of 50 mmol dm^−3 potassium phosphate buffer at pH 7.4 (2.4 mL), NADPH (20 μL of a 10 mM solution) and 60 μL of Supersomal™ p450 reductase (Gentest; Catalogue number P244) and incubated at 37° C. For experiments under nitrogen the mixture was degassed with nitrogen for 20 minutes prior to compound addition and overgassed with nitrogen during the incubation. Samples (100 μl) were taken at regular intervals and added to an equivalent volume of acetonitrile, then mixed and centrifuged at 14, 300 RPM for 2 min prior to product analysis by HPLC. In this test the compound of Example 1 produced combretastatin A4 at a rate of […]·min^−1·mg protein^−1 under nitrogen but only 110 pmol·min^−1·mg protein^−1 under air."}, "A549 cells": {"test_system": "A549 cells", "assay": "Cellular cytotoxicity (Celltiter 96 MTS assay)", "format": "cell-based", "settings": "A549, 6 h exposure then 72 h incubation", "description": "The cytotoxic or cytostatic properties of compounds of formula (1) and compounds of formula DrXH can be assessed for example, by use, for example, of this assay. The Celltiter 96® Aqueous One Solution Cell Proliferation Assay kit (Promega Corporation, USA) which is a colorimetric method for determining the number of viable cells in proliferation or cytotoxicity assays was used. In this assay the MTS tetrazolium compound (Owen's Reagent) is bioreduced by viable cells into a coloured formazan product which is soluble in tissue culture medium and can be measured by recording absorbance at 490 nm with a 96 well plate reader. A549 cells were seeded in Eagles Minimum Essential Medium supplemented with 10% foetal calf serum and non-essential amino acids at […] on a 96 well plate and allowed to attach for 24 h. Compounds were dissolved in DMSO and diluted with cell culture medium before addition. The cells were exposed to test compound (0 to 2 μmol dm^−3) for 6 h then incubated for a further 72 h. The MTS reagent was added to each well, left for 4 h, then the absorbance measured at 490 nm with a 96 well plate reader. In this assay the compound of Example 1 had no activity at concentrations up to […] whereas combretastatin A4 reduced cell numbers to 50% of control at a concentration of around 250 nM."}}, "note": "pIC50: −log10 of the molar value. Where two headings read alike, the source gives them in different places.", "data": [{"smiles": "COc1ccc(/C=C\\c2cc(OC)c(OC)c(OC)c2)cc1OCc1ccc([N+](=O)[O-])s1", "note": "[1-(4-methoxy-3-(5-nitrothiene-2-yl)methoxy)phenyl-2-(3,4,5-trimethoxy)phenyl-Z-ethene]", "values": [{"measurement": "Rate of combretastatin A4 production", "setting": "[1]", "value": 20, "unit": "pmol·min^−1·mg protein^−1"}]}, {"smiles": "COc1ccc(/C=C\\c2cc(OC)c(OC)c(OC)c2)cc1OC(C)(C)c1ccc([N+](=O)[O-])s1", "note": "[Example 1]", "values": [{"measurement": "Rate of combretastatin A4 production", "setting": "[2]; under air", "value": 110, "unit": "pmol·min^−1·mg protein^−1"}, {"measurement": "Rate of combretastatin A4 production", "setting": "[2]; under nitrogen", "value": "710 ppmol·min^−1·mg protein^−1"}, {"measurement": "pIC50", "setting": "A549 cells; Homo sapiens, read-out: No activity at concentrations up to", "value": "< 5.70"}]}, {"smiles": "CC(C)(Sc1ncnc2[nH]cnc12)c1ccc([N+](=O)[O-])cc1", "note": "[Example 4, 6-(2-(4-nitrophenyl)propan-2-ylsulfanyl)-9H-purine]", "values": [{"measurement": "melting point", "value": "206 to 208", "unit": "°C"}]}, {"smiles": "COc1ccc(/C=C\\c2cc(OC)c(OC)c(OC)c2)cc1O", "note": "[combretastatin A4, reference compound]", "values": [{"measurement": "pIC50", "setting": "A549 cells; read-out: Concentration reducing cell numbers to 50% of control", "value": "~6.60"}]}]}
